Tested on: L1210 leukemia
Assay: NCI 3LE31, i.p.-implanted L1210 lymphoid leukemia
Type: in vivo, DBA/2 mice
Conditions: for response vs control in vivo at 25 mg/kg: 25 mg/kg i.p. daily for nine days; for number of mice cured (surviving after thirty day test period): six mice; for activity in i.p.-implanted lymphoid leukemia test (in words): 3LE31, reproducible T/C of 150% or higher is considered significant activity
Procedure: The spectrum of antitumor activity of the compound of Example 1 was determined employing a number of standard National Cancer Institute (NCI) protocols. The antitumor activity was determined in vivo against several different tumors, employing various treatment schedules and routes of administration.
Samples of the test compounds of Examples 1-10 and a number of structurally-related control compounds were tested in accordance with National Cancer Institute test protocol 3LE31 (NCI Protocol 1.100, Cancer Chemotherapy Reports Part 3, Vol. 3, No. 2, September 1972) to determine the effects of the several compounds on i.p.-implanted L1210 leukemia (J. Nat'l. Cancer Inst. 13(5):1328, 1953). Each test involved implantation of the leukemia cells in six DBA/2 mice, one sex per experiment, the male mice weighing a minimum of 18 grams and the female mice weighing a minimum of 17 grams, and all of the test animals being within a three gram weight range. The test compound was administered by i.p. injections, in 0.1 ml. doses of diluted ascitic fluid (10^5 cells per dose), commencing one day after the tumor implant and continuing daily for nine days.
The test animals were weighed and survivors recorded on a regular basis during a thirty day test period. The ratio of survival time for the treated and control animals (T/C) was determined as a percentage.
The tests were carried out at varying dosage levels and with varying numbers of repetitions, depending upon the results obtained with each test compoud. […] A reproducible T/C of 150% or higher is considered significant activity.
The number of mice "cured", viz., those surviving from each animal test group after the thirty day test period, is indicated in parenthesis following the T/C percentage data in Table III below: […]

[1] = Mus musculus, L1210, ip, read-out: T/C % (survival time treated/control)
[2] = Mus musculus, L1210, ip, 50 mg/kg i.p. daily for nine days, read-out: T/C % (survival time treated/control)
[3] = Mus musculus, L1210, ip, 100 mg/kg i.p. daily for nine days, read-out: T/C % (survival time treated/control)
[4] = Mus musculus, L1210, ip, 200 mg/kg i.p. daily for nine days, read-out: T/C % (survival time treated/control)
[5] = 200 mg/kg i.p. daily for nine days
[6] = 100 mg/kg i.p. daily for nine days
[7] = Mus musculus, L1210, ip, 400 mg/kg i.p. daily for nine days, read-out: T/C % (survival time treated/control)

Question: Which response vs control in vivo at 25 mg/kg [1] does the source give for `O=C(Nc1ccc(F)cc1F)c1c(O)[nH]c(=S)[nH]c1=O` [Example 9, N-(2,4-difluorophenyl)-1,2,3,4-tetrahydro-6-hydroxy-4-oxo-1-thioxo-5-pyrimidinecarboxamide] here?
Answer: The response vs control in vivo at 25 mg/kg was 113%.

Question: And the response vs control in vivo at 50 mg/kg [2]?
Answer: Its response vs control in vivo at 50 mg/kg is 113%.

Question: What about the response vs control in vivo at 100 mg/kg [3] of the same compound?
Answer: Its response vs control in vivo at 100 mg/kg is 114%.

Question: And the response vs control in vivo at 200 mg/kg [4]?
Answer: The response vs control in vivo at 200 mg/kg was 133%.

Question: `O=C(Nc1ccccc1)c1c(O)[nH]c(=S)n(-c2ccccc2)c1=O` [Control O] was tested. Which “T/C % (survival time treated/control)” value [5] did it give?
Answer: Its value is “Toxic”.

Question: And the response vs control in vivo at 25 mg/kg [1]?
Answer: The response vs control in vivo at 25 mg/kg was 104%.

Question: What about the response vs control in vivo at 50 mg/kg [2] of the same compound?
Answer: Its response vs control in vivo at 50 mg/kg is 115%.

Question: What about the response vs control in vivo at 100 mg/kg [3] of the same compound?
Answer: Its response vs control in vivo at 100 mg/kg is 123%.

Question: For `O=C(Nc1ccccc1)c1c(O)[nH]c(=O)[nH]c1=O` [Control B], which “number of mice cured (surviving after thirty day test period)” value [5] is on record?
Answer: The value was 2.

Question: And the “activity in i.p.-implanted lymphoid leukemia test (in words)” value?
Answer: Its value is “exhibited significant activity”.

Question: What about the response vs control in vivo at 25 mg/kg [1] of the same compound?
Answer: The response vs control in vivo at 25 mg/kg was 118%.

Question: Which results are given for `O=C(Nc1ccc(Cl)cc1)c1c(O)[nH]c(=S)n(-c2ccccc2)c1=O` [Control Q]?
Answer: T/C % (survival time treated/control) (50 mg/kg i.p. daily for nine days): 92%; T/C % (survival time treated/control) [6]: 112%; T/C % (survival time treated/control) [5]: Toxic; response vs control in vivo at 25 mg/kg [1]: 100%

Question: Which results are given for `COc1ccc(NC(=O)c2c(O)[nH]c(=S)[nH]c2=O)cc1` [Example 6, 1,2,3,4-tetrahydro-6-hydroxy-N-(4-methoxyphenyl)-4-oxo-2-thioxo-5-pyrimidinecarboxamide]?
Answer: response vs control in vivo at 25 mg/kg [1]: 112%; response vs control in vivo at 50 mg/kg [2]: 108%; response vs control in vivo at 100 mg/kg [3]: 104%; response vs control in vivo at 200 mg/kg [4]: 127%; response vs control in vivo at 400 mg/kg [7]: 127%

Question: For `O=C(Nc1ccccc1)c1c(O)[nH]c(=O)[nH]c1=O` [Control C], which “activity in i.p.-implanted lymphoid leukemia test (in words)” value is on record?
Answer: Its value is “exhibited significant activity”.

Question: And the response vs control in vivo at 400 mg/kg [7]?
Answer: Its response vs control in vivo at 400 mg/kg is 233%.

Question: Which results are given for `COC(=O)c1ccccc1NC(=O)c1c(O)n(-c2ccccc2)c(=S)n(-c2ccccc2)c1=O` [Control V]?
Answer: T/C % (survival time treated/control) [6]: Toxic; T/C % (survival time treated/control) [5]: Toxic; response vs control in vivo at 25 mg/kg [1]: 102%; response vs control in vivo at 50 mg/kg [2]: 106%

Question: With `COc1ccc(NC(=O)c2c(O)[nH]c(=O)[nH]c2=O)cc1` [Control F] as the compound, how does the response vs control in vivo at 25 mg/kg [1] read?
Answer: Its response vs control in vivo at 25 mg/kg is 109%.

Question: And the response vs control in vivo at 50 mg/kg [2]?
Answer: The response vs control in vivo at 50 mg/kg was 105%.

Question: What about the response vs control in vivo at 100 mg/kg [3] of the same compound?
Answer: Its response vs control in vivo at 100 mg/kg is 105%.

Question: What about the response vs control in vivo at 200 mg/kg [4] of the same compound?
Answer: Its response vs control in vivo at 200 mg/kg is 117%.

Question: Which “T/C % (survival time treated/control)” value [5] does the source give for `Cn1c(=S)[nH]c(O)c(C(=O)Nc2ccccc2)c1=O` [Control G] here?
Answer: Its value is “Toxic”.

Question: And the response vs control in vivo at 25 mg/kg [1]?
Answer: Its response vs control in vivo at 25 mg/kg is 94%.

Question: What about the response vs control in vivo at 50 mg/kg [2] of the same compound?
Answer: The response vs control in vivo at 50 mg/kg was 98%.

Question: And the response vs control in vivo at 100 mg/kg [3]?
Answer: The response vs control in vivo at 100 mg/kg was 87%.

Question: How did the response vs control in vivo at 25 mg/kg [1] turn out when `COc1ccc(C)cc1NC(=O)c1c(O)[nH]c(=S)[nH]c1=O` [Example 10, 1,2,3,4-tethydro-6-hydroxy-N-(2-methoxy-5-methylphenyl)-4-oxo-2-thioxo-5-pyrimidinecarboxamide] was run?
Answer: Its response vs control in vivo at 25 mg/kg is 110%.

Question: What about the response vs control in vivo at 50 mg/kg [2] of the same compound?
Answer: The response vs control in vivo at 50 mg/kg was 130%.

Question: What about the response vs control in vivo at 100 mg/kg [3] of the same compound?
Answer: The response vs control in vivo at 100 mg/kg was 113%.

Question: What about the response vs control in vivo at 200 mg/kg [4] of the same compound?
Answer: Its response vs control in vivo at 200 mg/kg is 113%.

Question: What does the source list for `O=C(Nc1ccccc1Cl)c1c(O)[nH]c(=S)[nH]c1=O` [Example 2, N-(2-chlorophenyl)-1,2,3,4-tetrahydro-6-hydroxy-4-oxo-2-thioxo-5-pyrimidinecarboxamide]?
Answer: number of mice cured (surviving after thirty day test period) [5]: 1; T/C % (survival time treated/control) (400 mg/kg i.p. daily for nine days): Toxic; response vs control in vivo at 25 mg/kg [1]: 106%; response vs control in vivo at 50 mg/kg [2]: 118%; response vs control in vivo at 100 mg/kg [3]: 127%

Question: For `CCOc1ccc(NC(=O)c2c(O)[nH]c(=S)[nH]c2=O)cc1` [Example 7, N-(4-ethoxyphenyl)-1,2,3,4-tetrahydro-6-hydroxy-4-oxo-2-thioxo-5-pyrimidinecarboxamide], which “T/C % (survival time treated/control)” value [5] is on record?
Answer: The value was “Toxic”.

Question: And the response vs control in vivo at 6.25 mg/kg (Mus musculus, L1210, ip, 6.25 mg/kg i.p. daily for nine days, read-out: T/C % (survival time treated/control))?
Answer: The response vs control in vivo at 6.25 mg/kg was 102%.

Question: And the response vs control in vivo at 12.5 mg/kg (Mus musculus, L1210, ip, 12.5 mg/kg i.p. daily for nine days, read-out: T/C % (survival time treated/control))?
Answer: Its response vs control in vivo at 12.5 mg/kg is 97%.

Question: What about the response vs control in vivo at 25 mg/kg [1] of the same compound?
Answer: The response vs control in vivo at 25 mg/kg was 115%.

Question: What about the response vs control in vivo at 100 mg/kg [3] of the same compound?
Answer: The response vs control in vivo at 100 mg/kg was 178%.

Question: What does the source list for `Cc1ccccc1NC(=O)c1c(O)[nH]c(=O)[nH]c1=O` [Control D]?
Answer: response vs control in vivo at 25 mg/kg [1]: 108%; response vs control in vivo at 50 mg/kg [2]: 104%; response vs control in vivo at 100 mg/kg [3]: 106%; response vs control in vivo at 200 mg/kg [4]: 124%

Source: patent US4634707A, “5-Pyrimidinecarboxamides and treatment of leukemia and tumors therewith” (Uniroyal Chemical Company, priority 1984, dated 1987)
